Results as given in ChEMBL document CHEMBL4477234, “Potent Suppressive Effects of 1-Piperidinylimidazole Based Novel P2X7 Receptor Antagonists on Cancer Cell Migration and Invasion” (J Med Chem, 2016).

Columns and labels:
[1] = target: T1, P2X purinoceptor 7 (Homo sapiens, UniProt Q99572); assay: Antagonist activity at human P2X7 receptor expressed in HEK293 cells assessed as inhibition of BzATP-induced EtBr uptake measured after 2 hrs by fluorescence analysis; type: cell-based
T1 sequence (Q99572 whole entry): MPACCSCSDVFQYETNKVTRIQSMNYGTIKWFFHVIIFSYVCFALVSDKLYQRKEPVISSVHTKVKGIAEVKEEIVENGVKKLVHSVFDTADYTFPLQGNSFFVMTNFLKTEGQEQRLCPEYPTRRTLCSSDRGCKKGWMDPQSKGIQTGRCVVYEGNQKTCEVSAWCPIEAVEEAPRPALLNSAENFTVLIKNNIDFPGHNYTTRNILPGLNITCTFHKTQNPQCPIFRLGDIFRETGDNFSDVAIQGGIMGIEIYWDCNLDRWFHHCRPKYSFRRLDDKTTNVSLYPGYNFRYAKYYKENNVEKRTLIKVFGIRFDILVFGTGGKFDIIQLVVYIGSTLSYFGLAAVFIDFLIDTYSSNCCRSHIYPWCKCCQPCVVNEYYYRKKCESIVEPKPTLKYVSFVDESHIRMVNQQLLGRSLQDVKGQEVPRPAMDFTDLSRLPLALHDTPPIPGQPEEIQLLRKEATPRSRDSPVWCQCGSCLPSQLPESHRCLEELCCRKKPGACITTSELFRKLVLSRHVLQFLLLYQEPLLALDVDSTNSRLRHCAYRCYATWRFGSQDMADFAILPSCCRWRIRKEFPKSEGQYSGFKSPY

[2] = target: T1, P2X purinoceptor 7; assay: Antagonist activity at human P2X7 receptor in LPS/IFN-gamma-differentiated human THP-1 cells assessed as suppression of BzATP-stimulated IL-1beta release per-incubated for 30 mins before BzATP addition and measured after 30 mins by ELISA; type: cell-based

Compound	IC50 [1] [nM]	IC50 [2] [nM]
Nc1cccc(S(=O)(=O)Oc2ccc(-c3cncn3C3CCN(C(=O)c4ccc(Cl)c(C(F)(F)F)c4)CC3)cc2)c1	565	–
COc1ccc(C(=O)N2CCC(n3cncc3-c3ccc(OS(=O)(=O)c4cccc(C(=O)NC5CC5)c4)cc3)CC2)cc1	244	–
N#Cc1ccc(C(=O)N2CCC(n3cncc3-c3ccc(OS(=O)(=O)c4cccc5cnccc45)cc3)CC2)cc1	269	–
O=C(c1ccc(Cl)c(C(F)(F)F)c1)N1CCC(n2ccc3cc(OS(=O)(=O)c4cccc5cnccc45)ccc32)CC1	430	552
O=C(Oc1ccc(-c2cncn2C2CCN(C(=O)c3ccc(Cl)c(C(F)(F)F)c3)CC2)cc1)c1cccc2cnccc12	> 10000	–
O=C(c1ccc(Cl)c(C(F)(F)F)c1)N1CCC(n2cncc2-c2ccc(OS(=O)(=O)c3cccc([N+](=O)[O-])c3)cc2)CC1	249	–
O=C(c1ccc(Cl)c(C(F)(F)F)c1)N1CCC(n2cncc2-c2ccc(OS(=O)(=O)c3cccc4ccccc34)cc2)CC1	3520	–
CCN(CC)C(=O)c1cccc(S(=O)(=O)Oc2ccc(-c3cncn3C3CCN(C(=O)c4ccc(Cl)c(C(F)(F)F)c4)CC3)cc2)c1	202	–
O=C(c1ccc(Cl)c(C(F)(F)F)c1)N1CCC(n2cncc2-c2ccc(OS(=O)(=O)c3ccccc3)cc2)CC1	702	–
O=C(c1ccc(Oc2ccccc2)cc1)N1CCC(n2cncc2-c2ccc(OS(=O)(=O)c3cccc4cnccc34)cc2)CC1	187	–
COc1ccc(C(=O)N2CCC(n3cncc3-c3ccc(OS(=O)(=O)c4cccc(C#N)c4)cc3)CC2)cc1	312	–
CNC(=O)c1cccc(S(=O)(=O)Oc2ccc(-c3cncn3C3CCN(C(=O)c4ccc(S(C)(=O)=O)cc4)CC3)cc2)c1	202	–
O=C(Oc1ccc(-c2cncn2C2CCN(C(=O)c3ccc(Cl)c(C(F)(F)F)c3)CC2)cc1)c1ccccc1	> 10000	–
CCN(CC)c1ccc(C(=O)N2CCC(n3cncc3-c3ccc(OS(=O)(=O)c4cccc5cnccc45)cc3)CC2)cc1	1440	–
CC(=O)Oc1ccc(-c2cncn2C2CCN(C(=O)c3ccc(Cl)c(C(F)(F)F)c3)CC2)cc1	> 10000	–
O=C(Oc1ccc(-c2cncn2C2CCN(C(=O)c3ccc(Cl)c(C(F)(F)F)c3)CC2)cc1)c1cccs1	> 10000	–
CS(=O)(=O)c1ccc(C(=O)N2CCC(n3cncc3-c3ccc(OS(=O)(=O)c4cccc(C(=O)NC5CC5)c4)cc3)CC2)cc1	400	–
O=C(c1ccc(Cl)c(C(F)(F)F)c1)N1CCC(n2cncc2-c2ccc(OS(=O)(=O)c3cccs3)cc2)CC1	238	–
CS(=O)(=O)Oc1ccc(-c2cncn2C2CCN(C(=O)c3ccc(Cl)c(C(F)(F)F)c3)CC2)cc1	1570	–
O=C(c1ccc(Cl)c(C(F)(F)F)c1)N1CCC(n2cncc2-c2ccc(OS(=O)(=O)c3cccc(Br)c3)cc2)CC1	896	–
COc1ccc(C(=O)N2CCC(n3cncc3-c3ccc(OS(=O)(=O)c4cccc5cnccc45)cc3)CC2)cc1OC	259	–

These reach a lower IC50 [1]. Values come first.

IC50 [1] [nM]	IC50 [2] [nM]	Compound
159	–	CNC(=O)c1cccc(S(=O)(=O)Oc2ccc(-c3cncn3C3CCN(C(=O)c4ccc(OC)cc4)CC3)cc2)c1
155	–	CN(C)c1cccc(C(=O)N2CCC(n3cncc3-c3ccc(OS(=O)(=O)c4cccc5cnccc45)cc3)CC2)c1
152	–	O=C(NC1CC1)c1cccc(S(=O)(=O)Oc2ccc(-c3cncn3C3CCN(C(=O)c4ccc([N+](=O)[O-])cc4)CC3)cc2)c1
143	–	CS(=O)(=O)c1ccc(C(=O)N2CCC(n3cncc3-c3ccc(OS(=O)(=O)c4cccc(C#N)c4)cc3)CC2)cc1
112	1.76	CNC(=O)c1cccc(S(=O)(=O)Oc2ccc(-c3cncn3C3CCN(C(=O)c4ccc(Cl)c(C(F)(F)F)c4)CC3)cc2)c1
109	4.7	CC(C)(O)c1ccc(C(=O)N2CCC(n3cncc3-c3ccc(OS(=O)(=O)c4cccc5cnccc45)cc3)CC2)cc1
88	58	O=C(NC1CC1)c1cccc(S(=O)(=O)Oc2ccc(-c3cncn3C3CCN(C(=O)c4ccc(Cl)c(C(F)(F)F)c4)CC3)cc2)c1
77	64	COc1ccc(C(=O)N2CCC(n3cncc3-c3ccc(OS(=O)(=O)c4cccc5cnccc45)cc3)CC2)cc1
73	4.28	N#Cc1cccc(S(=O)(=O)Oc2ccc(-c3cncn3C3CCN(C(=O)c4ccc(Cl)c(C(F)(F)F)c4)CC3)cc2)c1
62	26	CNC(=O)c1cccc(S(=O)(=O)Oc2ccc(-c3cncn3C3CCN(C(=O)c4ccc([N+](=O)[O-])cc4)CC3)cc2)c1
55	37	CC(C)c1ccc(C(=O)N2CCC(n3cncc3-c3ccc(OS(=O)(=O)c4cccc5cnccc45)cc3)CC2)cc1
45	22	O=C(c1ccc(Cl)c(C(F)(F)F)c1)N1CCC(n2cncc2-c2ccc(OS(=O)(=O)c3cccc4cnccc34)cc2)CC1
45	13	N#Cc1cccc(S(=O)(=O)Oc2ccc(-c3cncn3C3CCN(C(=O)c4ccc([N+](=O)[O-])cc4)CC3)cc2)c1
44	50	CS(=O)(=O)c1ccc(C(=O)N2CCN(c3cc(=O)[nH]c(=O)n3Cc3ccc(OS(=O)(=O)c4cccc5cnccc45)cc3)CC2)cc1
41	121	CN(C)c1ccc(C(=O)N2CCC(c3nc4cc(OS(=O)(=O)c5cccc6cnccc56)ccc4[nH]3)CC2)cc1
40	18	O=C(c1ccc(Cl)c(C(F)(F)F)c1)N1CCN(c2cc(=O)[nH]c(=O)n2Cc2ccc(OS(=O)(=O)c3cccc4cnccc34)cc2)CC1
32	10	CN(C)c1ccc(C(=O)N2CCC(n3cncc3-c3ccc(OS(=O)(=O)c4cccc(C#N)c4)cc3)CC2)cc1
31	210	O=C(c1ccc(Cl)c(C(F)(F)F)c1)N1CCC(c2nc3cc(OS(=O)(=O)c4cccc5cnccc45)ccc3[nH]2)CC1
27	32	O=C(c1ccc([N+](=O)[O-])cc1)N1CCN(c2cc(=O)[nH]c(=O)n2Cc2ccc(OS(=O)(=O)c3cccc4cnccc34)cc2)CC1
25	0.32	CS(=O)(=O)c1ccc(C(=O)N2CCC(n3cncc3-c3ccc(OS(=O)(=O)c4cccc5cnccc45)cc3)CC2)cc1
25	22	CNC(=O)c1cccc(S(=O)(=O)Oc2ccc(-c3cncn3C3CCN(C(=O)c4ccc(N(C)C)cc4)CC3)cc2)c1
13	17	O=C(c1ccc([N+](=O)[O-])cc1)N1CCC(c2nc3cc(OS(=O)(=O)c4cccc5cnccc45)ccc3[nH]2)CC1
1.49	8.29	O=C(c1ccc([N+](=O)[O-])cc1)N1CCC(n2cncc2-c2ccc(OS(=O)(=O)c3cccc4cnccc34)cc2)CC1
